# Assay results as given in ChEMBL document CHEMBL1828557, “Biophysical and physicochemical methods differentiate highly ligand-efficient human D-amino acid oxidase inhibitors” (Eur J Med Chem, 2011).
# Columns and labels:
# [1] = molecular target: T1, D-aspartate oxidase (Bos taurus, UniProt P31228); test: Inhibition of bovine recombinant DASPO expressed in Escherichia coli preincubated for 15 mins by fluorescence assay
# T1 sequence (P31228 whole entry): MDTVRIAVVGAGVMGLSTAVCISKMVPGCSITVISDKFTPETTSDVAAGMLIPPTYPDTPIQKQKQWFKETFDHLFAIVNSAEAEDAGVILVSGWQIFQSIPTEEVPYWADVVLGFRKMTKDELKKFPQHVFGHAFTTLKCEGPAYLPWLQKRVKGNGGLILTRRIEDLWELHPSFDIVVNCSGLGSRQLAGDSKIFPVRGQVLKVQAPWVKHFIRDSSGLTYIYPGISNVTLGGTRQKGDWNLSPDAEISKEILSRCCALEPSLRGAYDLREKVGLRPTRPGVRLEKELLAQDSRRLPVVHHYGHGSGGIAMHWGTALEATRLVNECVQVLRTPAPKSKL
# [2] = molecular target: Voltage-gated inwardly rectifying potassium channel KCNH2 (Homo sapiens, UniProt Q12809); test: Inhibition of human ERG expressed in HEK293 cells by whole cell voltage patch clamp technique; assay type: cell-based
# Voltage-gated inwardly rectifying potassium channel KCNH2, sequence (Q12809 whole entry): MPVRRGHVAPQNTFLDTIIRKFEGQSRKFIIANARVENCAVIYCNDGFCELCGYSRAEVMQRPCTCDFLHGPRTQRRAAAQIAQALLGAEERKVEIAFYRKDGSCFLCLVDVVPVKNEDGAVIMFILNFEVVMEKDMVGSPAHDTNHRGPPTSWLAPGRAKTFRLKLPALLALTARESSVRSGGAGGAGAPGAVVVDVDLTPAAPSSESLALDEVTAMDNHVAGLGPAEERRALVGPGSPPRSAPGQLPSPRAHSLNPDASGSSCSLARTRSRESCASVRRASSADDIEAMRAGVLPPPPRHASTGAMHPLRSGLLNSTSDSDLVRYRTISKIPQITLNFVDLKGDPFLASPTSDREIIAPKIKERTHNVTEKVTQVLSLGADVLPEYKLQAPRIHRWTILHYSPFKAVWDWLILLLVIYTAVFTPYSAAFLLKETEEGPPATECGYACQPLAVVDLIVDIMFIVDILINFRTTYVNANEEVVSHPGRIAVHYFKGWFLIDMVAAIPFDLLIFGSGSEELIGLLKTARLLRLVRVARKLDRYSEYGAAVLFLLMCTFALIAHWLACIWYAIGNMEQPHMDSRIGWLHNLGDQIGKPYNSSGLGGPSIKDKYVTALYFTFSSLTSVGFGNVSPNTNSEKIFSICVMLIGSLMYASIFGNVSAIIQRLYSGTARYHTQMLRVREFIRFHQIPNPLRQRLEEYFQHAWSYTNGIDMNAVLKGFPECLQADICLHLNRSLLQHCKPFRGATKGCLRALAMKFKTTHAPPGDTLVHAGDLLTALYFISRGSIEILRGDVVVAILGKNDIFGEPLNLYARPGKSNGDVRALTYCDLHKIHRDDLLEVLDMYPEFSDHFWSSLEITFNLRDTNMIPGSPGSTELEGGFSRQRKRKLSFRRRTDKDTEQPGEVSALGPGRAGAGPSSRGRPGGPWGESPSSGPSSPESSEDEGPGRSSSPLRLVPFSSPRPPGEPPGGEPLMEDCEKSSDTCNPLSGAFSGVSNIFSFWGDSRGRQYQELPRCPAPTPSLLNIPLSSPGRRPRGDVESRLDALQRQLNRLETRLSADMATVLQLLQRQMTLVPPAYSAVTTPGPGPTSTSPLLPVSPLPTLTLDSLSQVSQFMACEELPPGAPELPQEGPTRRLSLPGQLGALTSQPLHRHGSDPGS
# [3] = Dissociation constant, pKa of the compound by dip probe absorption spectroscopy technique; assay type: physicochemical
# [4] = Octanol-water partition coefficient, log P of the neutral compound by pH-metric method; assay type: physicochemical
# [5] = Thermodynamic solubility of the compound in phosphate buffer at pH 7.4 after 24 hrs by HPLC analysis; assay type: physicochemical; details: read-out: Therm_solubility
# [6] = Kinetic solubility of the compound in 0.01 M phosphate buffered saline at pH 7.4 assessed as minimum solubility after 2 hrs; assay type: physicochemical; details: read-out: Kinetic_solubility
# [7] = Kinetic solubility of the compound in 0.01 M phosphate buffered saline at pH 7.4 assessed as maximum solubility after 2 hrs; assay type: physicochemical; details: read-out: Kinetic_solubility
# [8] = Apparent permeability across apical to basolateral side in human Caco2 cells by LC-MS/MS analysis; assay type: ADME, cell-based; details: Caco-2
# [9] = Apparent permeability from apical to basolateral side of MDCK cells expressing MDR1 by LC-MS/MS analysis; assay type: ADME, cell-based, Canis lupus familiaris; details: dog
# [10] = Intrinsic clearance in human liver microsomes; assay type: ADME, Microsome
# [11] = Cmax in Wistar rat brain at 10 mg/kg, po; assay type: ADME, organism-based; set-up: dose 10 mg/kg, route oral
# [12] = Cmax in Swiss mouse brain at 10 mg/kg, po; assay type: ADME, organism-based; set-up: dose 10 mg/kg, route oral
# [13] = tested on: Brain; test: AUC (0 to last) in Wistar rat brain at 10 mg/kg, po; assay type: ADME, organism-based; set-up: dose 10 mg/kg, route oral, time 0 - last; details: in vivo
# [14] = tested on: Brain; test: AUC (0 to last) in Swiss mouse brain at 10 mg/kg, po; assay type: ADME, organism-based; set-up: time 0 - last, dose 10 mg/kg, route oral; details: in vivo
# [15] = Ratio of drug level (0 to last) in brain to plasma in Wistar rat at 10 mg/kg, po; assay type: ADME, organism-based; set-up: dose 10 mg/kg, route oral; details: brain and plasma, read-out: BPR
# [16] = Ratio of drug level (0 to last) in brain to plasma in Swiss mouse at 10 mg/kg, po; assay type: ADME, organism-based; set-up: dose 10 mg/kg, route oral; details: brain and plasma, read-out: BPR
# [17] = Oral bioavailability (0 to last) in Wistar rat plasma at 10 mg/kg; assay type: ADME, organism-based
# [18] = Oral bioavailability (0 to last) in Swiss mouse plasma at 10 mg/kg; assay type: ADME, organism-based
# [19] = Tmax in Wistar rat brain at 10 mg/kg, po; assay type: ADME, organism-based; set-up: dose 10 mg/kg, route oral
# [20] = Tmax in Swiss mouse brain at 10 mg/kg, po; assay type: ADME, organism-based; set-up: dose 10 mg/kg, route oral
# [21] = Terminal half life in Wistar rat brain at 10 mg/kg, po; assay type: ADME, organism-based; set-up: dose 10 mg/kg, route oral; details: read-out: beta t1/2 (converted)
# [22] = Terminal half life in Swiss mouse brain at 10 mg/kg, po; assay type: ADME, organism-based; set-up: dose 10 mg/kg, route oral; details: read-out: beta t1/2 (converted)
# [23] = Volume of distribution in Wistar rat plasma at 1 mg/kg, iv; assay type: ADME, organism-based; set-up: dose 1 mg/kg, route intravenous
# [24] = Volume of distribution in Swiss mouse plasma at 1 mg/kg, iv; assay type: ADME, organism-based; set-up: dose 1 mg/kg, route intravenous
# [25] = Plasma clearance in Wistar rat plasma at 1 mg/kg, iv; assay type: ADME, organism-based; set-up: dose 1 mg/kg, route intravenous
# [26] = Plasma clearance in Swiss mouse plasma at 1 mg/kg, iv; assay type: ADME, organism-based; set-up: dose 1 mg/kg, route intravenous
# [27] = molecular target: T2, D-amino-acid oxidase (Homo sapiens, UniProt P14920)
# Target sequence in this assay (P14920 whole entry, looked up): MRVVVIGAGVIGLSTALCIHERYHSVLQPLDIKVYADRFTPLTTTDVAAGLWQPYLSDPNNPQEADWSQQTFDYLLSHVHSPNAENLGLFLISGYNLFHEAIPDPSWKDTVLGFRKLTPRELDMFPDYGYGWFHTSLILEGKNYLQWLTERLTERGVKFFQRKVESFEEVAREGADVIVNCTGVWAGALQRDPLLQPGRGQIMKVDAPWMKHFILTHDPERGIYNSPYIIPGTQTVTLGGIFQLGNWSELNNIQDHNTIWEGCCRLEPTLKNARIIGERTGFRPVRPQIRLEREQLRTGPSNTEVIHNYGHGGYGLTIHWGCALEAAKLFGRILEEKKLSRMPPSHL
# [28] = molecular target: T2, D-amino-acid oxidase; test: Inhibition of human recombinant DAAO expressed in Escherichia coli assessed as H2O2 production from D-serine degradation after 30 mins by fluorescence assay
# Target sequence in this assay (P14920 whole entry): as the sequence (P14920 whole entry, looked up) above
# [29] = molecular target: T2, D-amino-acid oxidase; test: Inhibition of human DAAO
# Target sequence in this assay (P14920 whole entry): as the sequence (P14920 whole entry, looked up) above
# [30] = molecular target: T2, D-amino-acid oxidase; test: Binding affinity to human recombinant DAAO by isothermal titration calorimeter analysis
# Target sequence in this assay (P14920 whole entry): as the sequence (P14920 whole entry, looked up) above
# [31] = molecular target: T2, D-amino-acid oxidase; test: Binding affinity to human recombinant DAAO by kinetic study scintillation proximity assay
# Target sequence in this assay (P14920 whole entry): as the sequence (P14920 whole entry, looked up) above
# [32] = Cmax in Wistar rat brain at 30 mg/kg, po; assay type: ADME, organism-based; set-up: dose 30 mg/kg, route oral
# [33] = Cmax in Swiss mouse brain at 30 mg/kg, po; assay type: ADME, organism-based; set-up: dose 30 mg/kg, route oral
# [34] = tested on: Brain; test: AUC (0 to last) in Wistar rat brain at 30 mg/kg, po; assay type: ADME, organism-based; set-up: time 0 - last, dose 30 mg/kg, route oral; details: in vivo
# [35] = tested on: Brain; test: AUC (0 to last) in Swiss mouse brain at 30 mg/kg, po; assay type: ADME, organism-based; set-up: time 0 - last, dose 30 mg/kg, route oral; details: in vivo
# [36] = Ratio of drug level (0 to last) in brain to plasma in Wistar rat at 30 mg/kg, po; assay type: ADME, organism-based; set-up: dose 30 mg/kg, route oral; details: brain and plasma, read-out: BPR
# [37] = Ratio of drug level (0 to last) in brain to plasma in Swiss mouse at 30 mg/kg, po; assay type: ADME, organism-based; set-up: dose 30 mg/kg, route oral; details: brain and plasma, read-out: BPR
# [38] = Oral bioavailability (0 to last) in Wistar rat plasma at 30 mg/kg; assay type: ADME, organism-based
# [39] = Oral bioavailability (0 to last) in Swiss mouse plasma at 30 mg/kg; assay type: ADME, organism-based
# [40] = Tmax in Wistar rat brain at 30 mg/kg, po; assay type: ADME, organism-based; set-up: dose 30 mg/kg, route oral
# [41] = Tmax in Swiss mouse brain at 30 mg/kg, po; assay type: ADME, organism-based; set-up: dose 30 mg/kg, route oral
# [42] = Terminal half life in Wistar rat brain at 30 mg/kg, po; assay type: ADME, organism-based; set-up: dose 30 mg/kg, route oral; details: read-out: beta t1/2 (converted)
# [43] = Terminal half life in Swiss mouse brain at 30 mg/kg, po; assay type: ADME, organism-based; set-up: dose 30 mg/kg, route oral; details: read-out: beta t1/2 (converted)
# [44] = Volume of distribution in Wistar rat plasma at 10 mg/kg, iv; assay type: ADME, organism-based; set-up: dose 10 mg/kg, route intravenous
# [45] = Volume of distribution in Swiss mouse plasma at 10 mg/kg, iv; assay type: ADME, organism-based; set-up: dose 10 mg/kg, route intravenous
# [46] = Plasma clearance in Wistar rat plasma at 10 mg/kg, iv; assay type: ADME, organism-based; set-up: dose 10 mg/kg, route intravenous
# [47] = Plasma clearance in Swiss mouse plasma at 10 mg/kg, iv; assay type: ADME, organism-based; set-up: dose 10 mg/kg, route intravenous
# [48] = molecular target: T2, D-amino-acid oxidase; test: Binding affinity to human recombinant DAAO by steady state study scintillation proximity assay
# Target sequence in this assay (P14920 whole entry): as the sequence (P14920 whole entry, looked up) above
SMILES,IC50 [1],pKa [3],logP [4],solubility thermodynamic at 24 h [5],solubility kinetic at 2 h [6],solubility kinetic at 2 h [7],microsomal CLint [10],Cmax [11],Cmax [12],AUClast [13],AUClast [14],bioavailability [17],bioavailability [18],Tmax [19],Tmax [20],Vd [23],Vd [24],clearance [25],clearance [26],T1/2 [27],further results
Oc1noc2cc(Cl)ccc12,> 10000 nM,4.07,2.68,433 µM,100 µM,> 100 µM,4.7 µL/min/mg,319 ng/mL,228 ng/mL,340 ng·h/mL,139 ng·h/mL,28%,29%,30 min,15 min,0.3 L/kg,0.2 L/kg,5 mL/min/kg,10 mL/min/kg,10 min,IC50 [2]: > 10000 nM; Papp A→B [8]: 77 ×10⁻⁶ cm/s; Papp A→B [9]: 75 ×10⁻⁶ cm/s; Kp [15]: 0.04; Kp [16]: 0.03; half-life [21]: 120 min; half-life [22]: 60 min
O=c1[nH]c2cccc(Cl)c2cc1O,> 10000 nM,7.6,2.57,31 µM,17 µM,55 µM,308 µL/min/mg,,11.7 ng/mL,,,1.4%,0.65%,,15 min,0.3 L/kg,0.3 L/kg,30 mL/min/kg,44 mL/min/kg,> 120 min,
O=c1[nH]c2ccc(F)c(Cl)c2cc1O,> 10000 nM,7.33,2.7,71 µM,3 µM,65 µM,183 µL/min/mg,17.9 ng/mL,12.1 ng/mL,,,2%,3%,30 min,15 min,0.3 L/kg,0.5 L/kg,28 mL/min/kg,45 mL/min/kg,,
O=C(O)c1cc2occc2[nH]1,> 10000 nM,4.09,1.56,428 µM,100 µM,> 100 µM,,889 ng/mL,487 ng/mL,1520 ng·h/mL,371 ng·h/mL,52%,42%,30 min,15 min,0.4 L/kg,0.8 L/kg,4 mL/min/kg,15 mL/min/kg,10 min,IC50 [2]: > 10000 nM; Kp [15]: 0.08; Kp [16]: 0.08; half-life [21]: 120 min; half-life [22]: 30 min

# More lines, main results first:
IC50 [1],pKa [3],logP [4],solubility thermodynamic at 24 h [5],solubility kinetic at 2 h [6],solubility kinetic at 2 h [7],microsomal CLint [10],Cmax [11],Cmax [12],AUClast [13],AUClast [14],bioavailability [17],bioavailability [18],Tmax [19],Tmax [20],Vd [23],Vd [24],clearance [25],clearance [26],T1/2 [27],SMILES,further results
> 10000 nM,3.59,0.45,> 460 µM,100 µM,> 100 µM,,,,,,,,,,,,,,,Cc1cc(C(=O)O)n[nH]1,IC50 [28]: 473 nM; IC50 [29]: 910 nM; Kd [30]: 617 nM; Kd [31]: 900 nM; Cmax [32]: 112 ng/mL; Cmax [33]: 359 ng/mL; AUClast [34]: 631 ng·h/mL; AUClast [35]: 831 ng·h/mL; Kp [36]: 0.04; Kp [37]: 0.1; bioavailability [38]: 97%; bioavailability [39]: 33%; Tmax [40]: 60 min; Tmax [41]: 30 min; half-life [42]: 180 min; half-life [43]: 60 min; Vd [44]: 3.5 L/kg; Vd [45]: 0.4 L/kg; clearance [46]: 11 mL/min/kg; clearance [47]: 10 mL/min/kg
> 10000 nM,3.88,2.11,> 460 µM,100 µM,> 100 µM,,648 ng/mL,336 ng/mL,1940 ng·h/mL,302 ng·h/mL,100%,56%,60 min,15 min,2.1 L/kg,0.4 L/kg,9 mL/min/kg,21 mL/min/kg,10 min,O=C(O)c1cc2sccc2[nH]1,IC50 [28]: 11.9 nM; IC50 [29]: 145 nM; Kd [30]: 19 nM; Kd [31]: 6 nM; Kd [48]: 33 nM; Papp A→B [8]: 47 ×10⁻⁶ cm/s; Papp A→B [9]: 6 ×10⁻⁶ cm/s; Kp [15]: 0.05; Kp [16]: 0.06; half-life [21]: 120 min; half-life [22]: 60 min
